Test results reported in article PMC6562865, “Vitis vinifera L. Leaf Extract Inhibits In Vitro Mediators of Inflammation and Oxidative Stress Involved in Inflammatory-Based Skin Diseases” (Antioxidants, 2019).

Legend:
Format in all cases: cell-based, human
[1] = system: VEGF; test: VEGF release in HaCaT cells (ELISA); conditions: 20 μM
Procedure: Cells were grown in 24-well plates for 48 h (30,000 cells per well) before challenge with the pro-inflammatory mediator. VEGF was quantified by the Human VEGF ELISA Development Kit. Briefly, Corning 96-well EIA/RIA plates (Sigma-Aldrich, Milan, Italy) were coated with the antibody provided in the ELISA Kit (PeproTech Inc., London, UK) overnight at 4 °C. After blocking the reaction, 300 μL of samples were transferred into wells at room temperature for 2 h. The amount of VEGF in the samples was detected by spectroscopy (signal read: 450 nm, 0.1 s) as described above. The quantitative measurement of VEGF was done using an optimized standard curve supplied with the ELISA set (100–2000 pg/mL). […] EGCG (20 μM) was used as the reference inhibitor of VEGF secretion.

[2] = system: IL-8; test: IL-8 release in HaCaT cells (ELISA); conditions: 20 μM
Procedure: Cells were grown in 24-well plates for 48 h (30,000 cells per well) before the cytokine treatment. IL-8 was quantified using a Human Interleukin-8 ELISA Development Kit as previously described. Preliminary time-course experiments were performed to set the best conditions for further experiments. HaCaT were treated with TNF-α (10 ng/mL), LPS (5 μg/mL), or H2O2 (100 μM), for 3, 6, 24, and 30 h. The IL-8 secretion induced by TNF-α or LPS was tested after 6 h of treatment, while the 24-h time point was chosen for H2O2. Epigallocatechin-3-gallate (EGCG) (20 μM) was used as the reference inhibitor of IL-8 secretion.
(§1) HaCaT cells were grown in 24-well plates for 48 h (30,000 cells per well), washed with phosphate-buffered saline (PBS), and exposed to UVB (40 mJ/cm^2) light source (Triwood 31/36, W36, V230, Helios Italquartz, Milano, Italy) in a glass bath. Radiation time (about 50 s) was adjusted for each experimental day, measuring energy emission by the LP 471 UVB probe (Delta OHM, Padova, Italy). After radiation, serum free fresh culture medium was immediately added. For the evaluation of IL-8 release, cells were treated for additional 9 h, a time point selected in preliminary time-course experiments. For NF-κB (p65) translocation, HaCaT cells were treated for 1 h after UVB radiation. EGCG (20 μM) was used as reference inhibitor.

[3] = system: MMP-9; test: MMP-9 release in HaCaT cells (ELISA); conditions: 20 μM
Procedure: MMP-9 secretion was performed on HaCaT cells treated with TNF-α (10 ng/mL) and (LPS 5 μg/mL) for 3, 6, 24, and 48 h. Cells were grown in 24-well plates (30,000 cell/well) for 48 h, before the treatment. Human MMP-9 ELISA Kit from RayBio® (Norcross GA, USA) was used to quantify MMP-9 secretion according to manufacturer’s instructions. 300 μL of samples in duplicate were transferred into a 96-well plate coated with anti-human MMP-9 and incubated overnight at 4 °C with gentle shaking. MMP-9 secreted was detected by the use of biotinylated and streptavidin–horseradish peroxidase (HRP) conjugate antibodies as previously described. The quantitative measurement of MMP-9 was done using an optimized standard curve supplied with the ELISA kit (8.23–6000 pg/mL). The MMP-9 secretion reached the maximum at 24 h for both TNF-α and LPS. VVWE was tested at 10–50 μg/mL in the presence of stimuli and between 2.5–200 μg/mL without the pro-inflammatory mediators.

[4] = system: NF-κB (p65); test: NF-κB (p65) nuclear translocation in HaCaT cells; conditions: 20 μM
Procedure: For the evaluation of the NF-κB (p65) translocation, HaCaT were plated at the concentration of 3 × 10^6 cells/mL in 100-mm plates with fresh complete medium. After 48 h, cells were treated for 1 h with the inflammatory mediators (TNF-α at 10 ng/mL or LPS at 5 μg/mL) and the extract (10–50 μg/mL) under study, using FBS-free medium. Nuclear extracts were prepared using the Nuclear Extraction Kit from the Cayman Chemical Company (Ann Arbor, MI, USA) as previously described.
Data were expressed considering 100% of the absorbance related to the cytokine-induced NF-κB nuclear translocation. EGCG (20 μM) was used as the reference inhibitor of the NF-κB nuclear translocation. The results are the mean ± SD of three experiments in triplicate.
as §1

[5] = system: IL-8 promoter; test: IL-8 promoter activity, IL-8-LUC transient transfection luciferase assay in HaCaT cells; conditions: transfected HaCaT, 6 h, 20 μM
Procedure: (§2) HaCaT cells were plated in 24-well plates and transiently transfected with the plasmid NF-κB-LUC or native IL-8-LUC, both at 250 ng per well, using Lipofectamine® 2000, according to previous studies. Sixteen hours later, the cells were treated for 6 h with increasing concentrations of VVWE in the presence of the pro-inflammatory mediators (TNF-α at 10 ng/mL or LPS at 5 μg/mL). After six hours, cells were harvested and the luciferase assay was performed using the BriteliteTM Plus reagent (PerkinElmer Inc., Massachusetts, USA) according to the manufacturer’s instructions. Data were expressed considering 100% of the luciferase activity related to the cytokine-induced promoter activity.

[6] = system: NF-κB; test: NF-κB-driven transcription, NF-κB-LUC transient transfection luciferase assay in HaCaT cells; conditions: transfected HaCaT, 6 h, 20 μM
Procedure: as §2

## Epigallocatechin-3-gallate [EGCG]
[1]; H2O2 100 μM, 24 h
  inhibition of H2O2-induced VEGF secretion: 100%
[1]; LPS 5 μg/mL, 30 h
  inhibition of LPS-induced VEGF secretion: 100%
[1]; TNF-α 10 ng/mL, 24 h
  inhibition of TNF-α-induced VEGF secretion: 78.7%
[2]; LPS 5 μg/mL, 6 h
  inhibition of LPS-induced IL-8 secretion: 84.9%
[2]; TNF-α 10 ng/mL, 6 h
  inhibition of TNF-α-induced IL-8 secretion: 62.1%
[2]; UVB 40 mJ/cm^2, 9 h
  inhibition of UVB-induced IL-8 secretion: 61.7%
[3]; LPS 5 μg/mL, 30 h
  inhibition of LPS-induced MMP-9 secretion: no inhibition
[3]; TNF-α 10 ng/mL, 24 h
  inhibition of TNF-α-induced MMP-9 secretion: 38.0%
[4]; LPS 5 μg/mL, 1 h
  inhibition of LPS-induced NF-κB nuclear translocation: 53.2%
[4]; TNF-α 10 ng/mL, 1 h
  inhibition of TNF-α-induced NF-κB nuclear translocation: 62.4%
[4]; UVB 40 mJ/cm^2, 1 h
  inhibition of UVB-induced NF-κB nuclear translocation: 39.1%
[5]; LPS 5 μg/mL
  inhibition of LPS-induced IL-8 promoter activity: 33.3%
[5]; TNF-α 10 ng/mL
  inhibition of TNF-α-induced IL-8 promoter activity: 35.9%
[6]; LPS 5 μg/mL
  inhibition of LPS-induced NF-κB-driven transcription: 29.9%
[6]; TNF-α 10 ng/mL
  inhibition of TNF-α-induced NF-κB-driven transcription: 59.9%
